Experimental data taken from US9682990B2, “Alcohol-, diol-, and carbohydrate-substituted indenoisoquinolines as topoisomerase I inhibitors” (Purdue Research Foundation, priority 2011, dated 2017).
Where two headings read alike, the source gives them in different places. Each block holds one compound with its values, some of them ahead of it.

Assays:
[1] = test system: all human cancer cell lines successfully tested; assay: NCI-60 cell line assay, mean-graph midpoint; type: cell-based; details: for GI50: Homo sapiens, Table 3, NCI-60, unit inferred, read-out: MGM GI50; for MGM (mean graph midpoint for growth inhibition): all human cancer cell lines tested, 10^−8 to 10^−4 molar
Protocol: Biological Results. The indenoisoquinoline analogues were tested for antiproliferative activity in the National Cancer Institute's Developmental Therapeutics Assay against cell lines derived from approximately 60 different human tumors. […] The cytotoxicities of the compounds to cultured cancer cells were measured in the National Cancer Institute's 60 cell line assay (a.k.a. NCI-60).

[2] = target: Tyrosyl-DNA phosphodiesterase 1 (TDP1) (Homo sapiens, UniProt Q9NUW8); assay: TDP1 inhibition; type: biochemical; details: scores correspond to IC50 ranges
Excerpt: Tyrosyl-DNA phosphodiesterase 1 (TDP1) is a DNA repair enzyme that repairs cytotoxic DNA damage induced by Top1 inhibitors.

[3] = test system: HOP-62 (Lung); assay: NCI Developmental Therapeutics antiproliferative assay, HOP-62; type: cell-based, human
Protocol: (§1) Biological Results. The indenoisoquinoline analogues were tested for antiproliferative activity in the National Cancer Institute's Developmental Therapeutics Assay against cell lines derived from approximately 60 different human tumors.

[4] = test system: SF-539 (CNS); assay: NCI Developmental Therapeutics antiproliferative assay, SF-539; type: cell-based, human
Protocol: (§2) Biological Results. The indenoisoquinoline analogues were tested for antiproliferative activity in the National Cancer Institute's Developmental Therapeutics Assay against cell lines derived from approximately 60 different human tumors. […] Results are reported in Table 2 as GI50 values for selected cell lines, and overall antiproliferative potency is quantified as a mean-graph midpoint (MGM).

[5] = test system: UACC-62 (Melanoma); assay: NCI Developmental Therapeutics antiproliferative assay, UACC-62; type: cell-based, human
Protocol: as §1

[6] = test system: OVCAR-3 (Ovarian); assay: NCI Developmental Therapeutics antiproliferative assay, OVCAR-3; type: cell-based, human
Protocol: as §2

[7] = test system: SN12C (Renal); assay: NCI Developmental Therapeutics antiproliferative assay, SN12C; type: cell-based, human
Protocol: as §2

[8] = test system: DU-145 (Prostate); assay: NCI Developmental Therapeutics antiproliferative assay, DU-145; type: cell-based, human
Protocol: as §1

[9] = test system: MCF7 (Breast); assay: NCI Developmental Therapeutics antiproliferative assay, MCF7; type: cell-based, human
Protocol: as §2

[10] = target: T1, Human recombinant Top1 (Homo sapiens, UniProt P11387); assay: Top1-mediated DNA cleavage assay; details: scale relative to 1 μM camptothecin
T1 sequence (P11387 1-765): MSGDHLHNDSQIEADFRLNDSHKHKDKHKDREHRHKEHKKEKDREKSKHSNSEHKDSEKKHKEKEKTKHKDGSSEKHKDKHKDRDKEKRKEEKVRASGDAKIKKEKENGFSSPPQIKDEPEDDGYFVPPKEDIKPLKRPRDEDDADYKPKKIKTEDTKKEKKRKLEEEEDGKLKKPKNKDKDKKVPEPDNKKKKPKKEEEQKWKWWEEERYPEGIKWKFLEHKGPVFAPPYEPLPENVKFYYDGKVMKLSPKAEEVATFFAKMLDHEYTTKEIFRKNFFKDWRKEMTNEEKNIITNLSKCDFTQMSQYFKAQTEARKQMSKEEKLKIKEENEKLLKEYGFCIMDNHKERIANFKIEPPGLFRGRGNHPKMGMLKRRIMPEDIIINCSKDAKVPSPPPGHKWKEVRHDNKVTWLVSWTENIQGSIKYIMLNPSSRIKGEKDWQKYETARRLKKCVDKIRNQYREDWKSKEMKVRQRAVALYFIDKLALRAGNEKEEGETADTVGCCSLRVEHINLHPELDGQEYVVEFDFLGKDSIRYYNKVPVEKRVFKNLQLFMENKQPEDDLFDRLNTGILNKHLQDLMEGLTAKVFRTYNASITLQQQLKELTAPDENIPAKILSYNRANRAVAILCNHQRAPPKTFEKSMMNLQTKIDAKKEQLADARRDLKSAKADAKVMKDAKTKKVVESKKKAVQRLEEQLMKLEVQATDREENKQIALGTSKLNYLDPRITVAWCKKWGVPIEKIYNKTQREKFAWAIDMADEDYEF

[11] = test system: HCT-116 (Colon); assay: NCI Developmental Therapeutics antiproliferative assay, HCT-116; type: cell-based, human
Protocol: as §1

[12] = test system: cell lines derived from approximately 60 different human tumors; assay: NCI initial one-dose screening assay; type: cell-based; details: percentage of cell growth, one-dose assay at 10 μM
[13] = Homo sapiens, HOP-62, 50% growth inhibition, read-out: Cytotoxicity (GI50) Lung HOP-62
[14] = Homo sapiens, SF-539, 50% growth inhibition, read-out: Cytotoxicity (GI50) CNS SF-539
[15] = Homo sapiens, UACC-62, 50% growth inhibition, read-out: Cytotoxicity (GI50) Melanoma UACC-62
[16] = Homo sapiens, OVCAR-3, 50% growth inhibition, read-out: Cytotoxicity (GI50) Ovarian OVCAR-3
[17] = Homo sapiens, SN12C, 50% growth inhibition, read-out: Cytotoxicity (GI50) Renal SN12C
[18] = Homo sapiens, DU-145, 50% growth inhibition, read-out: Cytotoxicity (GI50) Prostate DU-145
[19] = Homo sapiens, MCF7, 50% growth inhibition, read-out: Cytotoxicity (GI50) Breast MCF7

Chain of Tyrosyl-DNA phosphodiesterase 1 (TDP1) (Q9NUW8 whole entry, species assumed): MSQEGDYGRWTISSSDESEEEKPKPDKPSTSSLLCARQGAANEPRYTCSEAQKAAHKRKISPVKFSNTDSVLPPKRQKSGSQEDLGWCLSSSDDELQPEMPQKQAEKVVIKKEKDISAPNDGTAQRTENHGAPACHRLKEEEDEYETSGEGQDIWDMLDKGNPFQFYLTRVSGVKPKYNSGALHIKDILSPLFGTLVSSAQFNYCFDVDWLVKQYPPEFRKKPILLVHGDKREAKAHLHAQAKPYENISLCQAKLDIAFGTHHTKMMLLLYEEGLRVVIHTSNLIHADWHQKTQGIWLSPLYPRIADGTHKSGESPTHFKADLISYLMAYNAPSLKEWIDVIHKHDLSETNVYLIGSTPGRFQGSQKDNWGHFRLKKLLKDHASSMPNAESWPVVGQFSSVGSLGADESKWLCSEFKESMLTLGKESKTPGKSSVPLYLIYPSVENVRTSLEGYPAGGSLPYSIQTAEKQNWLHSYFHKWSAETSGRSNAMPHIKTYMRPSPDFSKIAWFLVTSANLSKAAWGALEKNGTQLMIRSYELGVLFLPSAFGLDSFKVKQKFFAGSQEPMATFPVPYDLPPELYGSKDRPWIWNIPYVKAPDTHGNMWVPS

IC50 [2]: > 111 µM
Compound: O=C1c2cc3c(cc2-c2c1c1ccc(F)cc1c(=O)n2C[C@H](O)[C@@H](O)[C@H](O)CO)OCO3
GI50 [1]: 0.078 µM

IC50 [2]: > 111 µM
Compound: O=C1c2cc3c(cc2-c2c1c1ccc(Cl)cc1c(=O)n2C[C@H](O)CO)OCO3
GI50 [1]: 0.042 µM

IC50 [2]: > 111 µM
Compound: O=C1c2cc3c(cc2-c2c1c1cc(F)c(F)cc1c(=O)n2C[C@H](O)CO)OCO3
GI50 [1]: 0.068 µM

Top1 inhibitory activity [10]: +++ (+++, between 75% and 95% activity)
Compound: O=C1c2ccccc2-c2c1c1ccccc1c(=O)n2C[C@H](O)CO [Compound 12a, (2′S)-5,6-Dihydro-6-[(2′,3′-dihydroxypropyl)]-5,11-dioxo-11H-indeno[1,2-c]isoquinoline]
GI50 [3, 13]: 5.01 µM
GI50 [4, 14]: 7.41 µM
GI50 [5, 15]: 5.37 µM
GI50 [6, 16]: 14.5 µM
GI50 [7, 17]: 6.92 µM
GI50 [8, 18]: 5.75 µM
GI50 [9, 19]: 4.9 µM
MGM (mean graph midpoint for growth inhibition) [1]: 8.71 µM

IC50 [2]: > 111 µM
Compound: O=C1c2cc3c(cc2-c2c1c1ccc(Cl)cc1c(=O)n2C[C@H](O)[C@H](O)[C@H](O)CO)OCO3

IC50 [2]: > 111 µM
Compound: O=C1c2cc3c(cc2-c2c1c1cc(Cl)c(Cl)cc1c(=O)n2C[C@H](O)CO)OCO3
GI50 [1]: 0.013 µM

IC50 [2]: > 111 µM
Compound: O=C1c2cc3c(cc2-c2c1c1ccc(F)cc1c(=O)n2C[C@H](O)CO)OCO3
GI50 [1]: 0.105 µM

Compound: C[C@H](O)Cn1c2c(c3ccccc3c1=O)C(=O)c1ccccc1-2 [Compound 27c, (2′RS)-5,6-Dihydro-6-(2′-hydroxypropyl)-5,11-dioxo-11H-indeno[1,2-c]isoquinoline]
GI50 [3]: 3.46 µM
GI50 [11]: 5.75 µM
GI50 [4]: 6.76 µM
GI50 [5]: 6.16 µM
GI50 [6]: 16.2 µM
GI50 [7]: 3.98 µM
GI50 [8]: 4.36 µM
GI50 [9]: 3.8 µM
MGM (mean graph midpoint for growth inhibition) [1]: 7.9 µM
Growth Percent [12]: 50.24%

melting point: 200 to 205 °C
Compound: O=C1c2ccccc2-c2c1c1ccccc1c(=O)n2C[C@@H](O)CO [Compound 12b, (2′R)-5,6-Dihydro-6-[(2′,3′-dihydroxypropyl)]-5,11-dioxo-11H-indeno[1,2-c]isoquinoline]
GI50 [3, 13]: 3.79 µM
GI50 ([11]; Homo sapiens, HCT-116, 50% growth inhibition, read-out: Cytotoxicity (GI50) Colon HCT-116): 4.47 µM
GI50 [4, 14]: 5.72 µM
GI50 [5, 15]: 4.36 µM
GI50 [6, 16]: 16.1 µM
GI50 [7, 17]: 3.77 µM
GI50 [8, 18]: 2.34 µM
GI50 [9, 19]: 3.04 µM
MGM (mean graph midpoint for growth inhibition) [1]: 6.24 ± 0.22 µM
